IC50 data for 35 molecules are collected here from patent US20240208968A1, “ALPHA V BETA 6 AND ALPHA V BETA 1 INTEGRIN INHIBITORS AND USES THEREOF” (DiCE Molecules SV, Inc., priority 2021, published 2024).

Molecules are shown by their SMILES. Where a name gives a salt, the structure may show the parent alone.

The target in one test is αvβ1 (Homo sapiens, UniProt P05556+P06756). In words: Solid Phase Integrin αvβ1 Assay. The class given is binding. The essentials: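 Compound competes for αvβ1 binding to immobilized TGFb1-LAP (1 µg/mL coat) in Mn2+ (1 mM MnCl2), 2% BSA binding buffer over 90 min at room temperature, integrin added at 0.2 µg/mL. Read-out: streptavidin-HRP/TMB; IC50 from Levenberg-Marquardt four-parameter fit.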

Another test deals with αvβ6 (Homo sapiens, UniProt P06756+P18564). In words: Solid Phase Integrin αvβ6 Assay. The class given is binding. The essentials: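 Inhibition of αvβ6 binding to immobilized recombinant TGFb1-LAP (1 μg/mL coating), 1 h at room temperature with 1 mM MnCl2 in BSA/TBST buffer, integrin diluted to 0.2 μg/mL before addition. Streptavidin-HRP/TMB read-out; four-parameter logistic fitting gave IC50.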
Chain of αvβ6 (P06756 31-992 limits assumed): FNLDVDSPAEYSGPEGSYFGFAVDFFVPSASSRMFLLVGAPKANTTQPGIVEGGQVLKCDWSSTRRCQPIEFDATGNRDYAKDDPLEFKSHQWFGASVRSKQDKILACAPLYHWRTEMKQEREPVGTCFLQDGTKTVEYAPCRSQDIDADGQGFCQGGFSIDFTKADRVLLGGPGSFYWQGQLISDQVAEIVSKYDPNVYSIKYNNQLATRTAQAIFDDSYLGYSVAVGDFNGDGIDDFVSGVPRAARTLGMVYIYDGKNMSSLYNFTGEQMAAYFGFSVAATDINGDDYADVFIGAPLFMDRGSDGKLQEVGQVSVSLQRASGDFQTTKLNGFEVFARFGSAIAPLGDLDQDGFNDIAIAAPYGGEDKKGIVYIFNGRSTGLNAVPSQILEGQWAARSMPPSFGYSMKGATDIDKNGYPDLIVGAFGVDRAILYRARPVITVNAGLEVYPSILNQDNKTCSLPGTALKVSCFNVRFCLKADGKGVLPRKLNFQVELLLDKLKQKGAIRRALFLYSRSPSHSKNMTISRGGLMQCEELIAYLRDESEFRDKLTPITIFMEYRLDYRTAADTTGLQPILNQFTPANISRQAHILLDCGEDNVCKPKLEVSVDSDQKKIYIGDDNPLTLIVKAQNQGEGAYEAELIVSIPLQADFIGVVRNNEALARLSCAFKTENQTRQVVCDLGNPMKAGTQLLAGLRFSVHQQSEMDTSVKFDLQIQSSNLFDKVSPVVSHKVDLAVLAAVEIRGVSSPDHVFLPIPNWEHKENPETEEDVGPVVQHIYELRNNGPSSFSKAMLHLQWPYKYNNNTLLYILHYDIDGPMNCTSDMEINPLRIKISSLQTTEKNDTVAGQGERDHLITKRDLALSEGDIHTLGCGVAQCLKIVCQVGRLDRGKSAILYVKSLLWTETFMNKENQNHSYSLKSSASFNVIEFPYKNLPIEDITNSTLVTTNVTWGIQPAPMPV
Chain of αvβ6 (P18564 22-707 limits assumed): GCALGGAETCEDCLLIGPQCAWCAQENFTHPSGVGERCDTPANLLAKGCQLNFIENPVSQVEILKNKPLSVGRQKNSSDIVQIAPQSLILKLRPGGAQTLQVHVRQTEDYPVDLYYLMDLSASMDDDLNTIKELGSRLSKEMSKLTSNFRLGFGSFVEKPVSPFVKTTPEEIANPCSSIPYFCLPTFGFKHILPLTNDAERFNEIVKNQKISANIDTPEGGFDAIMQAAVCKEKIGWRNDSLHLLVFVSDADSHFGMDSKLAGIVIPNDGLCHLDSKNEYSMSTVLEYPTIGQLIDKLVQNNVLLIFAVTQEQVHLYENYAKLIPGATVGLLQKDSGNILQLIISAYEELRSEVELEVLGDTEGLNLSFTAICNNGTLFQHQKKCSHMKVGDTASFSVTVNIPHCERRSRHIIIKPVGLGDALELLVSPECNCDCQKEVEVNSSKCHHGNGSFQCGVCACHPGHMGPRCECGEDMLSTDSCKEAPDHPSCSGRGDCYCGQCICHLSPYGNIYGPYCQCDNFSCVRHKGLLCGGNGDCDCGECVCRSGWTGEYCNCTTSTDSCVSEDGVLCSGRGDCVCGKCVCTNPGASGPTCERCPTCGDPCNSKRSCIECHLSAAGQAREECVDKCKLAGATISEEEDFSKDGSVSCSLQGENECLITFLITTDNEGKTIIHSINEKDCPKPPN

Chain of αvβ1 (P06756 31-992 limits assumed): as the sequence (P06756 31-992 limits assumed) above
Chain of αvβ1 (P05556 21-728 limits assumed): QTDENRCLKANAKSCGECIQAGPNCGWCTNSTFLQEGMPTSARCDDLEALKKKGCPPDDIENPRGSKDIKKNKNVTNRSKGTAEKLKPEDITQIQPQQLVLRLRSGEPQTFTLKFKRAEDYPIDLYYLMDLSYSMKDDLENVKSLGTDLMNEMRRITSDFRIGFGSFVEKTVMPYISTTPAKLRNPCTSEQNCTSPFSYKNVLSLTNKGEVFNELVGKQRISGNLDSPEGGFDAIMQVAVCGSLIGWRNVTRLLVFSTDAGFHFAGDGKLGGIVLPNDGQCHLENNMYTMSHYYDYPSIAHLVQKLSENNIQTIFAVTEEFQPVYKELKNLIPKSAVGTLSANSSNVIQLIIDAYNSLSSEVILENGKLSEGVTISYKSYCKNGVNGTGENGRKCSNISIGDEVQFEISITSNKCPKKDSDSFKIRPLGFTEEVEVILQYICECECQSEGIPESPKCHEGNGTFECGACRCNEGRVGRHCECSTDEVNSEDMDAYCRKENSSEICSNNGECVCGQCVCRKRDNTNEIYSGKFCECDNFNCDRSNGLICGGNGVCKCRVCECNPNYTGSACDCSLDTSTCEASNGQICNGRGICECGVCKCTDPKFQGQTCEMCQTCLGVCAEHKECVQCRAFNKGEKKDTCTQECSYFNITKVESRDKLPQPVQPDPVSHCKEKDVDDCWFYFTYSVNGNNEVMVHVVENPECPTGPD

Take `C[C@@H]1C[C@H](C(=O)N[C@@H](CC(=O)O)c2ccccc2)CN(CCCc2ccc3c(n2)NCCC3)C1` [Compound 379]: the IC50 on αvβ1 and at αvβ6 was < 100 nM each time.

On to `O=C(O)C[C@@H](NC(=O)[C@@H]1CCCN(CCCc2ccc3c(n2)NCCC3)C1)c1cccc(C(F)(F)F)c1` (single isomer, unassigned) [Compound 203-B, hydrochloride], for which the IC50 on αvβ1 and against αvβ6 was < 100 nM each time.

For `O=C(NC[C@@H](C(=O)O)c1ccccc1C1CC1)[C@@H]1CCCN(CCCc2ccc3c(n2)NCCC3)C1` [Compound 260-B, 2-(2-cyclopropylphenyl)-3-((R)-1-(3-(5,6,7,8-tetrahydro-1,8-naphthyridin-2-yl)propyl)piperidine-3-carboxamido)propanoic acid], the IC50 was 100 to 1000 nM against αvβ1 and > 1000 nM against αvβ6.

With `O=C(O)CC(NC(=O)[C@@H]1CCCN(CCCc2ccc3c(n2)NCCC3)C1)c1ccc2c(c1)CCO2` (stereo partly drawn) [Compound 213, 3-(2,3-dihydrobenzofuran-5-yl)-3-((R)-1-(3-(5,6,7,8-tetrahydro-1,8-naphthyridin-2-yl)propyl)piperidine-3-carboxamido)propanoic acid hydrochloride], the IC50 against αvβ1 and against αvβ6 was < 100 nM throughout.

For `O=C(O)C[C@@H](O[C@@H]1CCCN(CCCc2ccc3c(n2)NCCC3)C1)c1ccccc1` [Compound 351], the IC50 against αvβ1 and against αvβ6 was > 1000 nM each time.

Regarding `C[C@H]1C[C@H](C(=O)NC[C@H](C(=O)O)c2ccc3ccccc3c2)CN(CCCc2ccc3c(n2)NCCC3)C1` [Compound 635], the IC50 on αvβ1 and against αvβ6 was 100 to 1000 nM in each case.

With `O=C(O)C[C@@H](CO[C@@H]1CCCN(CCCc2ccc3c(n2)NCCC3)C1)c1ccccc1-c1ccccc1` [Compound 461], the IC50 at αvβ1 and at αvβ6 was > 1000 nM each time.

Turning to `O=C(O)C[C@H](NC(=O)[C@@H]1CCCN(CCCc2ccc3c(n2)NCCC3)C1)c1cccc(C2CC2)c1F` [Compound 559], the IC50 is > 1000 nM on αvβ1 and 100 to 1000 nM on αvβ6.

For the molecule `O=C(NC[C@H](C(=O)O)c1cccc2c1CCCC2)[C@@H]1CCCN(CCCc2ccc3c(n2)NCCC3)C1` [Compound 253-A, 3-((R)-1-(3-(5,6,7,8-tetrahydro-1,8-naphthyridin-2-yl)propyl)piperidine-3-carboxamido)-2-(5,6,7,8-tetrahydronaphthalen-1-yl)propanoic acid], the IC50 against αvβ1 and on αvβ6 was < 100 nM each time.

Take `O=C(O)C[C@H](NC(=O)[C@@H]1CCCN(CCCc2ccc3c(n2)NCCC3)C1)c1cccc(-c2ccccc2)c1` [Compound 240, (S)-3-([1,1′-biphenyl]-3-yl)-3-((R)-1-(3-(5,6,7,8-tetrahydro-1,8-naphthyridin-2-yl)propyl)piperidine-3-carboxamido)propanoic acid hydrochloride]: the IC50 against αvβ1 and at αvβ6 was < 100 nM each time.

For `O=C(O)C[C@@H](NC(=O)[C@@H]1CCCN(CCCc2ccc3c(n2)NCCC3)C1)c1cccc(OC2COC2)c1` [Compound 412], the IC50 against αvβ1 and on αvβ6 was < 100 nM in each case.

`O=C(O)CC(NC(=O)[C@@H]1CCCN(CCCc2ccc3c(n2)NCCC3)C1)c1cccc2c1OCO2` (stereo partly drawn) [Compound 218, 3-(benzo[d][1,3]dioxol-4-yl-3-((R)-1-(3-(5,6,7,8-tetrahydro-1,8-naphthyridin-2-yl)propyl)piperidine-3-carboxamido)propanoic acid hydrochloride]: the IC50 against αvβ1 and on αvβ6 was < 100 nM throughout.

For `O=C(NC[C@H](NC(=O)C12CCC(CC1)CC2)C(=O)O)[C@@H]1CCCN(CCCc2ccc3c(n2)NCCC3)C1` [Compound 270, (S)-2-(bicyclo[2.2.2]octane-1-carboxamido)-3-((R)-1-(3-(5,6,7,8-tetrahydro-1,8-naphthyridin-2-yl)propyl)piperidine-3-carboxamido)propanoic acid], the IC50 on αvβ1 and against αvβ6 was < 100 nM throughout.

In the case of `O=C(NC[C@H](NS(=O)(=O)c1ccc2c(c1)CCC2)C(=O)O)[C@@H]1CCCN(CCCc2ccc3c(n2)NCCC3)C1` [Compound 275, (2S)-2-(indan-5-ylsulfonylamino)-3-[[(3R)-1-[3-(5,6,7,8-tetrahydro-1,8-naphthyridin-2-yl)propyl]piperidine-3-carbonyl]amino]propanoic acid], the IC50 against αvβ1 is 100 to 1000 nM; against αvβ6, < 100 nM.

For the molecule `O=C(O)C[C@H](CC(=O)N[C@@H]1CCN(CCCCc2ccc3c(n2)NCCC3)C1)c1ccccc1` [Compound 415], the IC50 on αvβ1 and against αvβ6 was 100 to 1000 nM throughout.

For the molecule `CC1(C)CCCN(c2cccc([C@H](CC(=O)O)NC(=O)[C@@H]3CCCN(CCCc4ccc5c(n4)NCCC5)C3)c2)C1` [Compound 230, (S)-3-(3-(3,3-dimethylpiperidin-1-yl)phenyl)-3-((R)-1-(3-(5,6,7,8-tetrahydro-1,8-naphthyridin-2-yl)propyl)piperidine-3-carboxamido)propanoic acid], the half-inhibitory concentration (IC50) at αvβ1 and against αvβ6 was < 100 nM each time.

As for `O=C(O)CC(CO[C@@H]1CCCN(Cc2ccc3c(n2)NCCC3)C1)c1ccccc1` (stereo partly shown) [Compound 336], the figures for the IC50 on αvβ1 and against αvβ6 were > 1000 nM and 100 to 1000 nM, respectively.

Take `O=C(NC[C@H](C(=O)O)c1cccc2cn([C@H]3CCC(F)(F)C3)nc12)[C@@H]1CCCN(CCCc2ccc3c(n2)NCCC3)C1` [Compound 619]: the IC50 on αvβ1 and at αvβ6 was < 100 nM throughout.

Take `CN1CCc2ccc(S(=O)(=O)N[C@@H](CNC(=O)[C@@H]3CCCN(CCCc4ccc5c(n4)NCCC5)C3)C(=O)O)cc21` [Compound 448]: the IC50 against αvβ1 and against αvβ6 was < 100 nM throughout.

On to `O=C(O)[C@H](CCO[C@@H]1CCCN(CCCc2ccc3c(n2)NCCC3)C1)Nc1ncnc2sccc12` [Compound 472], for which the values for the IC50 against αvβ1 and against αvβ6 were > 1000 nM and < 100 nM, respectively.

Turning to `O=C(N[C@H](CCO[C@@H]1CCCN(CCCc2ccc3c(n2)NCCC3)C1)C(=O)O)c1cc(Cl)cc(Cl)c1` [Compound 496], the values for the 50% inhibitory concentration (IC50) at αvβ1 and against αvβ6 were > 1000 nM and 100 to 1000 nM, respectively.

For the molecule `O=C(N[C@@H](CNC(=O)[C@@H]1CCCN(CCCc2ccc3c(n2)NCCC3)C1)C(=O)O)c1nnc(C2CC2)o1` [Compound 313], the 50% inhibitory concentration (IC50) at αvβ1 and on αvβ6 was < 100 nM each time.

On to `C[C@@H]1C[C@@H](C(=O)N[C@@H](CC(=O)O)c2ccccc2)CN(CCCc2ccc3c(n2)NCCC3)C1` [Compound 553], for which the IC50 at αvβ1 and against αvβ6 was 100 to 1000 nM in each case.

Consider `O=C(O)C[C@@H](CO[C@@H]1CCCN(CCCc2ccc3c(n2)NCCC3)C1)c1ccccc1` [Compound 297-B, 3-phenyl-4-(((R)-1-(3-(5,6,7,8-tetrahydro-1,8-naphthyridin-2-yl)propyl)piperidin-3-yl)oxy)butanoic acid], for which the IC50 against αvβ1 and at αvβ6 was < 100 nM in each case.

For the molecule `O=C(O)[C@@H](CO[C@@H]1CCCN(CCCc2ccc3c(n2)NCCC3)C1)c1ccccc1` [Compound 352], the IC50 against αvβ1 and against αvβ6 was > 1000 nM in each case.

Turning to `O=C(O)[C@H](CCO[C@@H]1CCCN(CCCCc2ccc3c(n2)NCCC3)C1)NC(=O)C12CCC(CC1)CC2` [Compound 399], the IC50 on αvβ1 and against αvβ6 was < 100 nM throughout.

In the case of `O=C(O)C[C@H](NC(=O)[C@@H]1CCCN(CCCc2ccc3c(n2)NCCC3)C1)c1cccc(N2CCCC2)c1` [Compound 227, (S)-3-(3-(pyrrolidin-1-yl)phenyl)-3-((R)-1-(3-(5,6,7,8-tetrahydro-1,8-naphthyridin-2-yl)propyl)piperidine-3-carboxamido)propanoic acid], the half-inhibitory concentration (IC50) on αvβ1 and at αvβ6 was < 100 nM in each case.

With `O=C(O)C[C@H](CO[C@@H]1CCCN(CCCc2ccc3c(n2)NCCC3)C1)c1cccc([C@H]2CCOC2)c1` [Compound 493], the concentration for half-maximal inhibition (IC50) against αvβ1 and against αvβ6 was 100 to 1000 nM each time.

Regarding `O=C(O)C[C@H](NC(=O)[C@@H]1CCCN(CCCc2ccc3c(n2)NCCC3)C1)c1cccc(N2CCCC2=O)c1` [Compound 239, (S)-3-(3-(2-oxopyrrolidin-1-yl)phenyl)-3-((R)-1-(3-(5,6,7,8-tetrahydro-1,8-naphthyridin-2-yl)propyl)piperidine-3-carboxamido)propanoic acid], the IC50 on αvβ1 and against αvβ6 was < 100 nM throughout.

For `O=C(O)C[C@H](NC(=O)[C@@H]1CCCN(CCCc2ccc3c(n2)NCCC3)C1)c1ccc2c(c1)C1(CC2)CC1` [Compound 541], the IC50 against αvβ1 and against αvβ6 was < 100 nM in each case.

Take `O=C(O)C[C@@H](CO[C@@H]1CCCN(CCCc2ccc3c(n2)NCCC3)C1)c1cc(C2CC2)ccc1F` [Compound 508]: the 50% inhibitory concentration (IC50) at αvβ1 and against αvβ6 was < 100 nM throughout.

As for `C[C@@H]1CN(c2cccc([C@H](CC(=O)O)NC(=O)[C@@H]3CCCN(CCCc4ccc5c(n4)NCCC5)C3)c2)C[C@H](C)O1` [Compound 236, (S)-3-(3-((2S,6R)-2,6-dimethylmorpholino)phenyl)-3-((R)-1-(3-(5,6,7,8-tetrahydro-1,8-naphthyridin-2-yl)propyl)piperidine-3-carboxamido)propanoic acid], the IC50 at αvβ1 and at αvβ6 was < 100 nM each time.

`O=C(O)C[C@H](CO[C@@H]1CCCN(CCCc2ccc3c(n2)NCCC3)C1)c1cccc(-n2cccn2)c1` [Compound 492]: the IC50 at αvβ1 and against αvβ6 was < 100 nM throughout.

Take `O=C(O)C[C@@H](CO[C@H]1CCCN(CCCc2ccc3c(n2)NCCC3)C1)c1ccccc1` [Compound 445]: the IC50 against αvβ1 and on αvβ6 was 100 to 1000 nM in each case.

In the case of `O=C(O)C[C@H](CO[C@H]1CCCN(CCCc2ccc3c(n2)NCCC3)C1)c1ccccc1` [Compound 442], the IC50 on αvβ1 and against αvβ6 was 100 to 1000 nM in each case.

By IC50 is commonly meant the concentration needed to halve the response being measured.
